# What was measured:
# BALB/c mice [1] = assay: Murine OVA model of asthma: BAL cell counts and lung histology; assay type: in vivo, mouse; conditions: for eosinophilia on lung histology / eosinophil infiltration into lung tissue: peptide i.n. 24 h before i.n. OVA challenge
# Procedure: A murine model in which immunization with ovalbumin (OVA) is used to induce asthma-like symptoms in normal Balb/c mice was employed. This model is described in Archer et al. 2004.
# Mice were immunized against OVA by i.p. injection and fourteen days later an intra-nasal (i.n.) challenge dose of OVA protein was administered. Three days later the degree of airway inflammation was assessed by bronchoalveolar lavage (BAL,) followed by counting the infiltrating leukocytes. In addition, the lungs were sectioned and stained with haematoxylin and eosin for histological analysis. In a preliminary experiment, live mice were monitored after treatment using whole body plethysmography to assess the degree of airway obstruction.
# Female BALB/c mice (6-8 wk of age) were injected i.p. with 10 μg of OVA (Sigma-Aldrich, St. Louis, Mo.) in 200 μl of alum adjuvant (Serva, Heidelberg, Germany) on day 1. Fourteen days after the i.p. immunization, mice were anaesthetized by an i.p. injection of a mixture of ketamine and xylazine (Sigma-Aldrich), and treated i.n. with 50 μl of PBS containing 100 μg of OVA.
# In preliminary experiments the peptide or “mock” peptide was given at either of two different time points (24 h prior to i.p. OVA sensitization or 24 h prior to i.n. OVA challenge) at a final concentration of either 1 mM (solution) or 50 mM (suspension) in phosphate-buffered saline (PBS; 0.02 M sodium phosphate buffer with 0.15 M sodium chloride, pH adjusted to 7.4.). The 50 mM concentration of the TCR peptide was chosen because 500 μM was the optimal blocking concentration for T cells in in vitro experiments. However, experiments using titration of the peptide will be used to determine the optimal dose. A 100 μl volume of formulated peptide was administered to the mice intranasally. […]
# Three days after the i.n. challenge with OVA, the mice from the different groups were sacrificed, the tracheas were cannulated, and a BAL was performed by flushing lung and airways five times with 1 ml of PBS. BAL cells were counted and spun on to glass slides using a cytospin (Shandon Southern Products, Asmoor, U.K.), and then stained with Diff-Quik (Roche Diagnostics, Mannheim, Germany) according to the manufacturer's instructions. […]
# Percentages of macrophages, lymphocytes, neutrophils, and eosinophils were determined microscopically using standard histological criteria.
# On days 1-6 after the last intranasal challenge with either OVA or saline, the lungs were analyzed by histology. […] The number of eosinophils in the lungs was quantified microscopically using a calibrated stage. […]
# [2] = system: human patients with psoriasis, atopic eczema, lichen planus, or contact dermatitis; conditions: cited from earlier work
# T cells = assay: Blocking of T cell function; assay type: cell-based; conditions: in vitro experiments
# sensitised animals = conditions: applied topically following application of a contact allergen; cited from earlier work
# Brown Norway rats = assay: Brown Norway rat OVA model of asthma: BAL leukocytes, eosinophil peroxidase and myeloperoxidase; assay type: in vivo; conditions: administration prior to challenge with allergen
# Procedure: The Brown Norway rat model was also employed to test the effects of TCR mimic peptides on reducing the symptoms of asthma. Similarly to the murine model described above, this model also involves immunisation with OVA. The model is described in Elwood, 1991. The model is illustrated in FIG. 5. In this model 10 rats were used per treatment group.
# Rats were immunized against OVA by s.c. injection on Day 1, 14 and 21, and on Day 28 an inhalation challenge dose of OVA protein was administered. One day later (Day 29) the degree of airway inflammation was assessed by bronchoalveolar lavage (BAL), followed by counting of the infiltrating leukocytes and measurement of the activity of eosinophil peroxidase and myeloperoxidase.
# Male Brown Norway rats (approximately 8 wks of age) were injected s.c. with 10 μg of OVA in 1 ml of alum adjuvant on day 1, 14 and 21. Concurrently, the animals received an i.p. injection of 0.25 ml Bordetella pertussis vaccine (Trivax-Evans Medical). Seven days. after the final sensitizing dose, the animals were restrained and exposed, nose only, to an aerosol of 10 mg/ml OVA for 1 h using a Wright nebuliser.
# In these experiments the peptide was administered either intra-tracheally (i.t) (3 mg/ml, 50 μl in 0.9% saline per rat, 24 hours before OVA challenge), intra-nasally (i.n.) (50 mg/ml, 100 μl in 0.9% saline per rat, 24 hours before OVA challenge) or by inhalation (0.1 mg/ml in 0.9% saline, 50 ml delivered by aerosol at a flow rate of 1 ml/min, for a total of 50 minutes, using a Wright nebuliser to ten (10) rats, 24 h and 4 h prior to OVA challenge). […]
# Twenty-four hours after the challenge with OVA, the rats from the different groups were anaesthetized by an i.p injection of sodium pentobarbital (100 mg/kg). […] The BAL fluid was centrifuged and the collected cells resuspended in 2 ml of PBS and the total number of leukocytes recovered were counted. The activity of eosinophil peroxidase and myeloperoxidase in the supernatant, following centrifugation (i.e., the cell-free BAL fluid) was determined by the method described in Schneider et al. 1997.
# BALB/c mice [3] = assay: Whole body plethysmography of airway obstruction in the murine OVA model; assay type: in vivo, mouse; conditions: preliminary experiment, peptide before allergen challenge, days 0-6
# Procedure: Mice were immunized against OVA by i.p. injection and fourteen days later an intra-nasal (i.n.) challenge dose of OVA protein was administered. Three days later the degree of airway inflammation was assessed by bronchoalveolar lavage (BAL,) followed by counting the infiltrating leukocytes. In addition, the lungs were sectioned and stained with haematoxylin and eosin for histological analysis. In a preliminary experiment, live mice were monitored after treatment using whole body plethysmography to assess the degree of airway obstruction. The effects of antigen challenge on airway hyperreactivity of mice in the experimental model described above can be measured by whole body plethysmography. This can be used to make an accurate comparison with the airway hyperreactivity observed in human asthmatics. The mice are anesthetized with pentobarbitol (70-90 mg/kg body weight, i.p.), and the jugular vein is cannulated with PE 10 silastic tubing. The tracheae are then intubated with a specially-angled 18 gauge needle, the chest opened, and the tubing connected to a Harvard ventilator (tidal volume=0.2 ml, frequency 120 breaths/min, positive end-expiratory pressure 2.5-3.0 cm H2 O) and placed in a whole body plethysmograph. This ventilation maintains normal arterial blood gases in the subject mouse. The dead space volume is 0.025 ml. […]
substance,measurement,setting,value
"NH2-Gly-Leu-Arg-Ile-Leu-Leu-Leu-Lys-Val-OH (H-GLRILLLKV-OH) [peptide, 9 amino acids, murine TCR-α transmembrane chain]",asthma symptoms,"BALB/c mice [1]; asthmatic mice, non-transgenic system",reduces asthma symptoms
same,eosinophilia in BAL,"BALB/c mice [1]; group C: peptide i.n. 24 h before i.n. OVA challenge, two independent experiments, pooled data",significant decrease
same,eosinophilia on lung histology / eosinophil infiltration into lung tissue,"BALB/c mice [1]; two independent experiments, pooled data",significant decrease
same,eosinophilia on lung histology / eosinophil infiltration into lung tissue,"BALB/c mice [1]; two independent experiments, pooled data, listed as TCR mimic peptide",marked reduction
same,therapeutic activity in human patients,[2],showed therapeutic activity
same,optimal blocking concentration for T cells,T cells,500 µM
same,development of contact sensitivity,sensitised animals,inhibited development of contact sensitivity
same,eosinophil peroxidase activity in bronchoalveolar lavage fluid,Brown Norway rats,reduction
same,leukocyte infiltration into lung tissue,Brown Norway rats,marked reduction
same,myeloperoxidase activity in bronchoalveolar lavage fluid,Brown Norway rats,reduction
same,airway obstruction measured by whole body plethysmography,BALB/c mice [3],significant effects
same,airway obstruction measured by whole body plethysmography,BALB/c mice [3]; listed as TCR mimic peptide,significant reduction

# Source: US7795223B2, “Treatment of inflammatory airway disease” (Novozymes Biopharma Au Ltd., priority 2004, dated 2010)
